From patent US6878690B2, “Compounds and methods” (PharmAxis Pty Ltd., priority 2000, dated 2005) come the findings set out here.

Several values for one entry are separate records, joined by “and”; a condition that tells them apart may be missing. Equal entries are not always repeated.

In the experiment the test system is DTH response to 2,4-dinitrofluorobenzene (DNFB). The experiment in a line: Delayed-type hypersensitivity (DTH) response to DNFB, ear swelling. Format: in vivo, Balb/C mice. The text has this: In the present Example, a murine model of Type IV hypersensitivity or delayed-type hypersensitivity (DTH) response to cutaneous contact with the chemical hapten 2,4-dinitrofluorobenzene (DNFB) (Aldrich Chemical Company Inc, USA) was used as a model to measure the anti-inflammatory effects of compounds of the present invention. Specific pathogen-free 8-12 week old female Balb/C mice, weighing 19-21 g, were sensitised in a similar manner to that described by Klimuk et al., (Klimuk et al., 1999) by applying a solution of DNFB (0.5% in acetone:olive oil (4:1, v/v); 30 microliters,) onto a 2 cm^2 shaved area of the abdomen. After 7 days, the animals were anesthetised with diethyl ether and 8 microliters of DNFB (0.35% in acetone:olive oil (4:1, v/v) was applied to the dorsal and ventral surfaces of the right pinna. Prior to regaining consciousness, the mice were implanted intraperitoneally with Alzet 2001 mini-osmotic pumps (Alza Corp., Palo Alto Calif., USA) containing phosphoric acid mono-[6-(3-hexyloxy-propyl)-3,4,5-trihydroxy-tetrahydro-pyran-2-ylmethyl] ester, sodium salt in normal saline. The dose delivered was 50 mg/kg/day. Control animals for this group received saline delivered in identical mini-osmotic pumps. A second experimental group of mice received phosphoric acid mono-[3-(3,4,5-trihydroxy-6-phosphonooxymethyl-tetrahydro-pyran-2-yl)-propyl] ester disodium salt via one-week delivery Alzet 2001 mini-osmotic pumps implanted intraperitoneally. This compound was delivered at a dose of 40 mg/kg/day. Control animals for this group received saline delivered in identical mini-osmotic pumps. In a third experiment a separate group of mice received (3,4,5-trihydroxy-6-phosphonooxymethyl-tetrahydro-pyran-2-yl)-acetic acid disodium salt via one-week delivery Alzet 2001 mini-osmotic pumps that were placed intraperitoneally. This compound was delivered at 45 mg/kg/day. The control group for this experiment received identical mini-osmotic pumps containing normal saline. In a fourth experiment a group of mice received 3-phenyl-2-[2-(3,4,5-trihydroxy-6-phosphonooxymethyl-tetrahydro-pyran-2-yl)-acetylamino]-propionic acid monosodium salt via one-week delivery Alzet 2001 mini-osmotic pumps that were placed subcutaneously. This compound was delivered at 62 mg/kg/day. The control group for this experiment received identical mini-osmotic pumps containing normal saline. In a fifth experiment a group of mice received hexanoic acid 3-(3,4,5-trihydroxy-6-phosphonooxymethyl-tetrahydro-pyran-2-yl)-propyl ester sodium salt via one-week delivery Alzet 2001 mini-osmotic pumps that were placed subcutaneously. This compound was delivered at 40 mg/kg/day. The control group for this experiment received identical mini-osmotic pumps containing normal saline.
Twenty-four hours after challenge the mice were lightly anesthetised with diethyl ether and the thickness of the left and right pinnae measured (in millimeters) using a dial gauge micrometer (Interapid, Switzerland). Care was taken to measure only the outer two thirds of the ear. The increase in ear thickness initiated by the DTH response was determined by subtracting the measurement of the left ear (untreated) from the right ear (challenged).
In Table 4, values in the columns labeled Left and Right are measurements of ear thickness in millimeters of the control and challenged ears respectively.

As to `CCCCCC(=O)OCCCC1OC(COP(=O)(O)O)C(O)C(O)C1O.[Na]` (centres unmarked) [hexanoic acid 3-(3,4,5-trihydroxy-6-phosphonooxymethyl-tetrahydro-pyran-2-yl)-propyl ester monosodium salt], for the setting “40 mg/kg/day subcutaneously, versus saline controls”, the “Mean percentage decrease in ear swelling in treated animals” value was “Mean percentage decrease in ear swelling in treated animals: 47.6%”. Where the note is “group mean, 40 mg/kg/day subcutaneously, saline control mean 0.126”, the “Mean Difference, Treated” value was found to be 0.066 millimeters. Also, the “Difference (right minus left ear), Treated” value (individual mice, 40 mg/kg/day, mini-osmotic pump subcutaneously, 24 hours after challenge, monosodium salt) is 0.07 millimeters (2×) and 0.08 millimeters and 0.05 millimeters and 0.06 millimeters. Where the note is “individual mice, challenged ear, 40 mg/kg/day, mini-osmotic pump subcutaneously, 24 hours after challenge, monosodium salt”, the “Right ear thickness, Treated” value is 0.29 millimeters (3×) and 0.28 millimeters and 0.27 millimeters. The “Left ear thickness, Treated” value (individual mice, control (unchallenged) ear, 40 mg/kg/day, mini-osmotic pump subcutaneously, 24 hours after challenge, monosodium salt) was 0.22 millimeters (2×) and 0.21 millimeters (2×) and 0.23 millimeters.
